The text below walks through data of US10689365B2, “Substituted 2-alkylimidazolylcarboxamides as pesticides” (Bayer CropScience Aktiengesellschaft, priority 2016, dated 2020).

For data set [1], the system named is Myzus persicae. The data set can be described thus: Myzus persicae - oral test. The data set is classed as in vivo. Conditions: for pest or weed control at 20 ppm: Myzus persicae, po, 120 h, read-out: efficacy. How it is done: Solvent: 100 parts by weight of acetone
To produce a suitable preparation of active compound, 1 part by weight of active compound is dissolved using the specified parts by weight of solvent and made up with water until the desired concentration is attained.
50 μl of the active compound preparation are transferred into microtitre plates and made up to a final volume of 200 μl with 150 μl of IPL41 insect medium (33%+15% sugar). Subsequently, the plates are sealed with parafilm, which a mixed population of green peach aphids (Myzus persicae) within a second microtitre plate is able to puncture and imbibe the solution through it.
After 5 days, the efficacy in % is determined. 100% means that all the aphids have been killed; 0% means that no aphids have been killed.

The subject of data set [2] is Myzus persicae. Nature of the data set: Myzus persicae - spray test (Chinese cabbage leaf discs). The data set is classed as in vivo. Conditions: for pest or weed control at 500 g/ha: Myzus persicae, foliar, read-out: efficacy. As for the experimental part: Myzus persicae—Spray Test
Solvent: 78 parts by weight of acetone • • 1.5 parts by weight of dimethylformamide
Emulsifier: alkylaryl polyglycol ether
To produce a suitable active compound preparation, 1 part by weight of active compound is dissolved using the stated parts by weight of solvent and made up with water containing an emulsifier concentration of 1000 ppm until the desired concentration is attained. To produce further test concentrations, the formulation is diluted with emulsifier-containing water.
Discs of Chinese cabbage leaves (Brassica pekinensis) infested by all stages of the green peach aphid (Myzus persicae) are sprayed with an active ingredient formulation of the desired concentration.
After 5-6 days, the efficacy in % is determined. 100% means that all the aphids have been killed; 0% means that no aphids have been killed.

Data set [3] in a line: log P by HPLC on reversed-phase (C18) columns, OECD Guideline 117. Type of data set: physicochemical. The note with it: for chromatographic logP: reversed-phase (C18) HPLC column. As for the experimental part:
The log P values were determined in accordance with OECD Guideline 117 (EC Directive 92/69/EEC) by HPLC (high-performance liquid chromatography) using reversed-phase (RP) columns (C18), by the following methods:
[a] The LC-MS determination in the acidic range was carried out at pH 2.7 with 0.1% aqueous formic acid and acetonitrile (contains 0.1% formic acid) as mobile phases; linear gradient from 10% acetonitrile to 95% acetonitrile.
[b] LC-MS determination in the neutral range was carried out at pH 7.8 with 0.001 molar aqueous ammonium hydrogencarbonate solution and acetonitrile as mobile phases; linear gradient from 10% acetonitrile to 95% acetonitrile.

The mark [4] stands for this setting: application rate 20 ppm, after 5 days.
The mark [5] stands for this setting: application rate 500 g/ha, after 5-6 days.
Setting [6] is: neutral range, pH 7.8, aqueous ammonium hydrogencarbonate/acetonitrile.
The mark [7] stands for this setting: acidic range, pH 2.7, 0.1% aqueous formic acid/acetonitrile.
[8] abbreviates: acidic range, pH 2.7, 0.1% aqueous formic acid/acetonitrile, read-out: logP[a].
Where [9] appears, read: neutral range, pH 7.8, aqueous ammonium hydrogencarbonate/acetonitrile, read-out: logP[n].

Like-named read-outs stand apart in the source and are kept apart here.

`CC(O)c1ncc(C(=O)N(C)c2cccnc2)n1C` (racemic) [Example I-1-9]: the efficacy in the data set with Myzus persicae [1] (setting [4]) and in the data set with Myzus persicae [2] (setting [5]) was 100% in each case. Besides, in data set [3] (setting [6]), the “logP[n]” value stood at 0.45.
With `CC(C)C(O)c1ncc(C(=O)N(C)c2cccnc2)n1C` (racemic) [Example I-1-11], the results for the efficacy in the data set on Myzus persicae [1] (setting [4]) and in the data set on Myzus persicae [2] (setting [5]) were 100% and 90%, respectively. Further, the “logP[a]” value in data set [3] (setting [7]) turned out to be 0.18.
For `CN(C(=O)c1cnc(C(O)c2ccccc2Cl)n1C)c1cccnc1` (racemic) [Example I-1-13] the same measures were 100%, 100% and 0.85.
Turning to `CN(C(=O)c1cnc(C(O)c2cccc(Cl)c2)n1C)c1cccnc1` (racemic) [Example I-1-14], the efficacy is listed as 100% in the data set on Myzus persicae [1] (setting [4]) and 90% in the data set on Myzus persicae [2] (setting [5]). Further, the “logP[a]” value in data set [3] (setting [7]) is given as 1.01. For the same compound, the “logP[n]” value in data set [3] (setting [6]) is reported as 1.56.
The corresponding values for `CN(C(=O)c1cnc(C(O)c2ccc(Cl)cc2)n1C)c1cccnc1` (racemic) [Example I-1-15] are 100%, 100%, 1.11 and 1.56.
The corresponding values for `CN(C(=O)c1cnc(C(O)c2ccc(Cl)c(Cl)c2)n1C)c1cccnc1` (racemic) [Example I-1-16] are 100%, 100%, 1.42 and 1.87.
For `CN(C(=O)c1cnc(C(O)c2ccccn2)n1C)c1cccnc1` (racemic) [Example I-1-17], the efficacy with Myzus persicae [1] (setting [4]) and in the data set with Myzus persicae [2] (setting [5]) was 100% each time. Besides, in data set [3] (setting [7]), the “logP[a]” value came to 0.02. For the same compound, in data set [3] (setting [6]), the “logP[n]” value was determined as 0.71.
`CN(C(=O)c1cnc(C(O)c2cccnc2)n1C)c1cccnc1` (racemic) [Example I-1-18]: the efficacy in the data set on Myzus persicae [1] (setting [4]) came out at 100%; in the data set with Myzus persicae [2] (setting [5]) it was 90%. The “logP[n]” value in data set [3] (setting [6]) is reported as 0.60.
Regarding `CN(C(=O)c1cnc(C(O)c2ccncc2)n1C)c1cccnc1` (racemic) [Example I-1-19], the efficacy is 100% in the data set on Myzus persicae [1] (setting [4]) and 90% in the data set on Myzus persicae [2] (setting [5]). Further, the “logP[n]” value in data set [3] (setting [6]) turned out to be 0.54.
Regarding `CN(C(=O)c1cnc(C(O)c2cnccc2Cl)n1C)c1cccnc1` (racemic) [Example I-1-20], the efficacy was determined as 100% with Myzus persicae [1] (setting [4]) and 90% in the data set with Myzus persicae [2] (setting [5]). Moreover, the “logP[a]” value in data set [3] (setting [7]) is 0.59. The “logP[n]” value in data set [3] (setting [6]) came to 1.07.
Take `CN(C(=O)c1cnc(C(O)c2ncccn2)n1C)c1cccnc1` (racemic) [Example I-1-21]: the efficacy with Myzus persicae [1] (setting [4]) and with Myzus persicae [2] (setting [5]) was 100% throughout. Moreover, the “logP[n]” value in data set [3] (setting [6]) was 0.40.
As to `CC(C)CC(O)c1ncc(C(=O)N(C)c2cccnc2)n1C` (racemic) [Example I-1-60], the efficacy is 100% in the data set with Myzus persicae [1] (setting [4]) and 90% in the data set on Myzus persicae [2] (setting [5]). In data set [3] (setting [7]), the “logP[a]” value is 0.60. In addition, the “logP[n]” value in data set [3] (setting [6]) is 1.26.
For `CC(C)CCC(O)c1ncc(C(=O)N(C)c2cccnc2)n1C` (racemic) [Example I-1-61] the same measures were 100%, 90%, 0.92 and 1.53.
`CN(C(=O)c1cnc(Cc2ccccc2)n1C)c1cccnc1` [Example I-1-3, 2-Benzyl-N,1-dimethyl-N-(pyridin-3-yl)-1H-imidazole-5-carboxamide]: the pest or weed control at 20 ppm with Myzus persicae [1] (setting [4]) is 90%. The pest or weed control at 500 g/ha in the data set with Myzus persicae [2] (setting [5]) worked out at 100%. For the same compound, the chromatographic logP was 0.64 in data set [3] (setting [8]) and 1.48 in data set [3] (setting [9]).
Turning to `CN(C(=O)c1cnc(Cc2ncccn2)n1C)c1cccnc1` [Example I-1-4], the efficacy in the data set with Myzus persicae [1] (setting [4]) and in the data set on Myzus persicae [2] (setting [5]) was 100% in each case. Moreover, the “logP[n]” value in data set [3] (setting [6]) is 0.68.
Take `CN(C(=O)c1cnc(CCc2ccccc2)n1C)c1cccnc1` [Example I-1-5, N,1-Dimethyl-2-(phenylethyl)-N-(pyridin-3-yl)-1H-imidazole-5-carboxamide]: the pest or weed control at 20 ppm in the data set with Myzus persicae [1] (setting [4]) was found to be 100%. The pest or weed control at 500 g/ha with Myzus persicae [2] (setting [5]) came out at 100%. Moreover, the chromatographic logP in data set [3] (setting [8]) stood at 0.66; in data set [3] (setting [9]), 1.58.
`C=Cc1ncc(C(=O)N(C)c2cccnc2)n1C` [Example I-1-6, N,1-Dimethyl-N-(pyridin-3-yl)-2-vinyl-1H-imidazole-5-carboxamide]: in the data set with Myzus persicae [1] (setting [4]), the pest or weed control at 20 ppm was 100%. Besides, the pest or weed control at 500 g/ha in the data set with Myzus persicae [2] (setting [5]) turned out to be 100%.
Consider `CN(C(=O)c1cnc(CO)n1C)c1cccnc1` [Example I-1-7, 2-(Hydroxymethyl)-N,1-dimethyl-N-(pyridin-3-yl)-1H-imidazole-5-carboxamide], for which the pest or weed control at 20 ppm in the data set on Myzus persicae [1] (setting [4]) is 100%. In the data set with Myzus persicae [2] (setting [5]), the pest or weed control at 500 g/ha is 100%. The chromatographic logP in data set [3] (setting [9]) came out at 0.28.
In turn, `CCN(C(=O)c1cnc(CO)n1C)c1cccnc1` [Example I-1-8] displayed an efficacy in the data set on Myzus persicae [1] (setting [4]) of 90%. Also, the “logP[a]” value in data set [3] (setting [7]) is reported as −0.16. In data set [3] (setting [6]), the “logP[n]” value turned out to be 0.63.
For the compound `CN(C(=O)c1cnc(C(C)(C)O)n1C)c1cccnc1` [Example I-1-10, 2-(2-Hydroxypropan-2-yl)-N,1-dimethyl-N-(pyridin-3-yl)-1H-imidazole-5-carboxamide], the pest or weed control at 20 ppm in the data set with Myzus persicae [1] is 70%. The pest or weed control at 500 g/ha in the data set with Myzus persicae [2] came out at 90%. For the same compound, the chromatographic logP in data set [3] (setting [9]) was determined as 0.57.
In the case of `CN(C(=O)c1cnc(C(O)c2ccccc2)n1C)c1cccnc1` (centres unmarked) [Example I-1-12, 2-[Hydroxy(phenyl)methyl]-N,1-dimethyl-N-(pyridin-3-yl)-1H-imidazole-5-carboxamide], in the data set on Myzus persicae [1], the pest or weed control at 20 ppm was 100%. Besides, the pest or weed control at 500 g/ha in the data set with Myzus persicae [2] stood at 90%. The chromatographic logP in data set [3] (setting [8]) was 0.52; in data set [3] (setting [9]) it was 1.23.
Take `CC(C)CS(=O)(=O)Cc1ncc(C(=O)N(C)c2ccc[n+]([O-])c2)n1C` [Example I-1-55, 2-[(Isobutylsulphonyl)methyl]-N,1-dimethyl-N-(1-oxidopyridin-3-yl)-1H-imidazole-5-carboxamide]: the results for the chromatographic logP in data set [3] (setting [8]) and in data set [3] (setting [9]) were 0.68 and 0.77, respectively.
In turn, `C=C(C)c1ncc(C(=O)N(C)c2cccnc2)n1C` [Example I-1-57] displayed an efficacy in the data set on Myzus persicae [2] (setting [5]) of 90%. Further, the “logP[a]” value in data set [3] (setting [7]) came out at 0.10. Moreover, the “logP[n]” value in data set [3] (setting [6]) is 1.05.
As to `C/C=C/c1ncc(C(=O)N(C)c2cccnc2)n1C` [Example I-1-58], the efficacy in the data set on Myzus persicae [2] (setting [5]) is 90%. In data set [3] (setting [6]), the “logP[n]” value was 1.08.
The compound `C/C=C\c1ncc(C(=O)N(C)c2cccnc2)n1C` [Example I-1-59] came in with an efficacy in the data set with Myzus persicae [2] (setting [5]) of 90%. For the same compound, the “logP[n]” value in data set [3] (setting [6]) is 1.11.
Compound `Cn1c(C(=O)N(c2cccnc2)C2CC2)cnc1CO` [Example I-1-66] showed an efficacy in the data set with Myzus persicae [1] (setting [4]) of 70%. Moreover, in data set [3] (setting [6]), the “logP[n]” value was 0.61.
In the case of `CN(C(=O)c1cnc(C(OCC(F)(F)F)C(F)(F)F)n1C)c1cccnc1` (centres unmarked) [Example I-1-67, N,1-Dimethyl-N-(pyridin-3-yl)-2-[2,2,2-trifluoro-1-(2,2,2-trifluoroethoxy)ethyl]-1H-imidazole-5-carboxamide], in the data set on Myzus persicae [2] (setting [5]), the pest or weed control at 500 g/ha turned out to be 70%. Further, the chromatographic logP amounted to 1.72 in data set [3] (setting [8]) and 1.86 in data set [3] (setting [9]).
Consider `CN(C(=O)c1cnc(C(O)C(Cl)(Cl)Cl)n1C)c1cccnc1` (centres unmarked) [Example I-1-68], for which, in data set [3] (setting [7]), the “logP[a]” value turned out to be 1.02. Also, the “logP[n]” value in data set [3] (setting [6]) worked out at 1.21.
For the compound `CN(C(=O)c1cnc(Cn2ncn(C3CC3)c2=O)n1C)c1cccnc1` [Example I-1-69], in the data set with Myzus persicae [2] (setting [5]), the efficacy came out at 70%. Further, the “logP[a]” value in data set [3] (setting [7]) turned out to be 0.22. For the same compound, the “logP[n]” value in data set [3] (setting [6]) came out at 0.59.
Consider `CN(C(=O)c1cnc(Cn2ncn(C)c2=O)n1C)c1cccnc1` [Example I-1-70], for which the “logP[n]” value in data set [3] (setting [6]) is given as 0.37.
`CN(C(=O)c1cnc(CCl)n1C)c1cccnc1` [III-1-1, 2-(Chloromethyl)-N,1-dimethyl-N-(pyridin-3-yl)-1H-imidazole-5-carboxamide]: the chromatographic logP in data set [3] (setting [9]) is 0.89.
Turning to `CN(C(=O)c1cnc(C#Cc2ccccc2)n1C)c1cccnc1` [IV-1-1, N,1-Dimethyl-2-(phenylethinyl)-N-(pyridin-3-yl)-1H-imidazole-5-carboxamide], the chromatographic logP was found to be 1.86 in data set [3] (setting [8]) and 1.98 in data set [3] (setting [9]).
